From ChEMBL document CHEMBL1201862, “PubChem BioAssay data set” (2004)
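1) Cells in 96-well plates. 2) Compound, 48 h, 5 concentrations. 3) Linear interpolation between surrounding doses. 4) Unreached endpoint = highest concentration. GI50 is the concentration that inhibits growth by half.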 Calls of active or inactive are those of the source. No stated cut-off is given here; in the data, active = GI50 up to about 1.1 µM and inactive = higher.

Columns and labels:
Assay in all cases: NCI tumour cell line growth inhibition, 48 h
OVCAR-8 = system: OVCAR-8
NCI-H460 = system: NCI-H460
M14 = system: M14
UACC-62 = system: UACC-62
K562 = system: K562
MDA-N = system: MDA-N
SF-295 = system: SF-295
HCC 2998 = system: HCC 2998
LOX IMVI = system: LOX IMVI
MCF7 = system: MCF7
OVCAR-3 = system: OVCAR-3
DU-145 = system: DU-145
T47D = system: T47D
SF-268 = system: SF-268
COLO 205 = system: COLO 205
Malme-3M = system: Malme-3M
NCI-H23 = system: NCI-H23
SN12C = system: SN12C
HL-60 = system: HL-60

SMILES	GI50 (OVCAR-8)	GI50 (NCI-H460)	GI50 (M14)	GI50 (UACC-62)	GI50 (K562)	GI50 (MDA-N)	GI50 (SF-295)	GI50 (HCC 2998)	GI50 (LOX IMVI)	GI50 (MCF7)	GI50 (OVCAR-3)	GI50 (DU-145)	GI50 (T47D)	GI50 (SF-268)	GI50 (COLO 205)	GI50 (Malme-3M)	GI50 (NCI-H23)	GI50 (SN12C)	GI50 (HL-60)
CCOC1OC(CO[Si](C)(C)C(C)(C)C)C(O)CC1n1ccc(=O)[nH]c1=O (configuration not stated)	33.7 µM (inactive)	81.3 µM (inactive)	26.8 µM (inactive)	> 100 µM (inactive)	31.9 µM (inactive)	> 100 µM (inactive)	> 100 µM (inactive)	> 100 µM (inactive)	17.4 µM (inactive)	31.5 µM (inactive)	43.8 µM (inactive)	> 100 µM (inactive)	52 µM (inactive)	30.8 µM (inactive)	80.5 µM (inactive)	> 100 µM (inactive)	> 100 µM (inactive)	> 100 µM (inactive)	–
N#Cc1ccc(-n2c3ccccc3c3ccc4c(c32)C(=O)C=CC4=O)cc1	3.66 µM (inactive)	21.6 µM (inactive)	2.68 µM (inactive)	6.25 µM (inactive)	1.29 µM (inactive)	4.99 µM (inactive)	14 µM (inactive)	8.43 µM (inactive)	2.99 µM (inactive)	2.52 µM (inactive)	3.27 µM (inactive)	3.6 µM (inactive)	2.74 µM (inactive)	2.62 µM (inactive)	2.79 µM (inactive)	–	6.89 µM (inactive)	3.65 µM (inactive)	0.578 µM (active)
c1ccc2c(c1)cc1ccc3cccc4ccc2c1c34	> 100 µM (inactive)	> 100 µM (inactive)	> 100 µM (inactive)	67.9 µM (inactive)	> 100 µM (inactive)	> 100 µM (inactive)	> 100 µM (inactive)	> 100 µM (inactive)	> 100 µM (inactive)	0.134 µM (active)	> 100 µM (inactive)	> 100 µM (inactive)	> 100 µM (inactive)	> 100 µM (inactive)	> 100 µM (inactive)	–	> 100 µM (inactive)	> 100 µM (inactive)	> 100 µM (inactive)
COC(=O)C(CSSC[C@H](N/C(C)=C/C(C)=O)C(=O)OC)N/C(C)=C/C(C)=O (some centres not stated)	< 0.01 µM (active)	> 100 µM (inactive)	30.8 µM (inactive)	64.4 µM (inactive)	33.3 µM (inactive)	52.8 µM (inactive)	35.2 µM (inactive)	–	14 µM (inactive)	26.9 µM (inactive)	4.17 µM (inactive)	25.7 µM (inactive)	16.6 µM (inactive)	42.2 µM (inactive)	> 100 µM (inactive)	14.4 µM (inactive)	> 100 µM (inactive)	48.8 µM (inactive)	30.2 µM (inactive)
CCC1=CC(OCc2ccccc2)C(CCN(Cc2ccccc2)C(=O)OCc2ccccc2)C1 (configuration not stated)	17.5 µM (inactive)	15.3 µM (inactive)	13.7 µM (inactive)	10.9 µM (inactive)	11 µM (inactive)	30.4 µM (inactive)	14.8 µM (inactive)	16.5 µM (inactive)	14.9 µM (inactive)	16.1 µM (inactive)	14.2 µM (inactive)	16.4 µM (inactive)	6.01 µM (inactive)	15.6 µM (inactive)	20.8 µM (inactive)	15.6 µM (inactive)	14.9 µM (inactive)	–	–
N#Cc1c(-c2cccc(Cl)c2)cc(-c2ccc(Cl)cc2)nc1N	24.6 µM (inactive)	18.8 µM (inactive)	19.1 µM (inactive)	16.5 µM (inactive)	34.4 µM (inactive)	20 µM (inactive)	17.2 µM (inactive)	–	17.1 µM (inactive)	16.3 µM (inactive)	23.7 µM (inactive)	32.9 µM (inactive)	27 µM (inactive)	18.5 µM (inactive)	14.6 µM (inactive)	28.1 µM (inactive)	17.5 µM (inactive)	17.3 µM (inactive)	38.1 µM (inactive)
N#Cc1nc(C#N)c(NC(=O)c2ccccc2C(=O)O)[nH]1	> 100 µM (inactive)	–	> 100 µM (inactive)	> 100 µM (inactive)	> 100 µM (inactive)	> 100 µM (inactive)	> 100 µM (inactive)	–	> 100 µM (inactive)	> 100 µM (inactive)	> 100 µM (inactive)	> 100 µM (inactive)	> 100 µM (inactive)	> 100 µM (inactive)	> 100 µM (inactive)	> 100 µM (inactive)	> 100 µM (inactive)	> 100 µM (inactive)	> 100 µM (inactive)
N#Cc1c(N2CCN(c3ccc([N+](=O)[O-])cc3)CC2)[n+]([O-])c2ccccc2[n+]1[O-]	20.5 µM (inactive)	> 100 µM (inactive)	> 100 µM (inactive)	> 100 µM (inactive)	6.78 µM (inactive)	> 100 µM (inactive)	> 100 µM (inactive)	> 100 µM (inactive)	32.4 µM (inactive)	> 100 µM (inactive)	> 100 µM (inactive)	> 100 µM (inactive)	55.6 µM (inactive)	0.346 µM (active)	> 100 µM (inactive)	> 100 µM (inactive)	> 100 µM (inactive)	> 100 µM (inactive)	–
N#C[BH2-][n+]1cn(C2CC(O)C(COP(=O)(O)OC3CC(n4cnc5c(=O)[nH]c(N)nc54)OC3CO)O2)c2nc(N)[nH]c(=O)c21 (configuration not stated)	> 100 µM (inactive)	> 100 µM (inactive)	> 100 µM (inactive)	> 100 µM (inactive)	–	> 100 µM (inactive)	> 100 µM (inactive)	> 100 µM (inactive)	–	39.5 µM (inactive)	> 100 µM (inactive)	> 100 µM (inactive)	> 100 µM (inactive)	> 100 µM (inactive)	> 100 µM (inactive)	> 100 µM (inactive)	> 100 µM (inactive)	> 100 µM (inactive)	> 100 µM (inactive)
Cc1[nH]c2ncn(/N=C/c3ccccc3)c(=N)c2c1Cc1ccccc1	> 100 µM (inactive)	> 100 µM (inactive)	> 100 µM (inactive)	58.9 µM (inactive)	> 100 µM (inactive)	55.1 µM (inactive)	> 100 µM (inactive)	83.9 µM (inactive)	89.9 µM (inactive)	79.6 µM (inactive)	> 100 µM (inactive)	> 100 µM (inactive)	> 100 µM (inactive)	> 100 µM (inactive)	> 100 µM (inactive)	–	> 100 µM (inactive)	> 100 µM (inactive)	> 100 µM (inactive)
COc1ccc(Oc2cccc(C3C4C(=O)N(c5ccc(C)c(Cl)c5)C(=O)C4ON3C(C(N)=O)c3ccccc3)c2)cc1 (configuration not stated)	17.5 µM (inactive)	14.8 µM (inactive)	13.1 µM (inactive)	10.9 µM (inactive)	16.6 µM (inactive)	10.4 µM (inactive)	35.9 µM (inactive)	–	13.7 µM (inactive)	15.3 µM (inactive)	16.7 µM (inactive)	9.59 µM (inactive)	9.23 µM (inactive)	18.3 µM (inactive)	15.1 µM (inactive)	15.8 µM (inactive)	8.55 µM (inactive)	12.4 µM (inactive)	12.6 µM (inactive)
CCCC#CC(O)(C(=O)OC1CCN(C)CC1)C1CCCCC1 (configuration not stated)	> 100 µM (inactive)	> 100 µM (inactive)	58.6 µM (inactive)	> 100 µM (inactive)	> 100 µM (inactive)	> 100 µM (inactive)	> 100 µM (inactive)	> 100 µM (inactive)	> 100 µM (inactive)	> 100 µM (inactive)	> 100 µM (inactive)	> 100 µM (inactive)	> 100 µM (inactive)	> 100 µM (inactive)	94.6 µM (inactive)	> 100 µM (inactive)	> 100 µM (inactive)	> 100 µM (inactive)	–
CC1(CC(=O)O)OC2CCCCCC2O1.NCc1ccccc1 (configuration not stated)	> 100 µM (inactive)	> 100 µM (inactive)	> 100 µM (inactive)	> 100 µM (inactive)	57.8 µM (inactive)	73.8 µM (inactive)	> 100 µM (inactive)	–	> 100 µM (inactive)	> 100 µM (inactive)	> 100 µM (inactive)	> 100 µM (inactive)	92.9 µM (inactive)	> 100 µM (inactive)	> 100 µM (inactive)	> 100 µM (inactive)	> 100 µM (inactive)	> 100 µM (inactive)	> 100 µM (inactive)
CC(C)(C)[Si](C)(C)Oc1ccc(C2CNC(=O)C23CCC(=O)N3Cc2ccccc2)cc1 (configuration not stated)	12.6 µM (inactive)	7.14 µM (inactive)	16.4 µM (inactive)	15.2 µM (inactive)	7.24 µM (inactive)	13.3 µM (inactive)	13.9 µM (inactive)	–	16.1 µM (inactive)	4.54 µM (inactive)	12.5 µM (inactive)	16.7 µM (inactive)	15.9 µM (inactive)	12.6 µM (inactive)	11.7 µM (inactive)	18.2 µM (inactive)	11.4 µM (inactive)	15 µM (inactive)	4.62 µM (inactive)
CC(=O)Nc1sc(Br)cc1S(=O)(=O)c1ccc(Cl)cc1	26.9 µM (inactive)	33.7 µM (inactive)	15.2 µM (inactive)	38.1 µM (inactive)	21.1 µM (inactive)	43.5 µM (inactive)	31.2 µM (inactive)	19.4 µM (inactive)	–	12.8 µM (inactive)	20.5 µM (inactive)	46.6 µM (inactive)	32.1 µM (inactive)	30.1 µM (inactive)	> 10 µM (inactive)	32.1 µM (inactive)	29.4 µM (inactive)	71.9 µM (inactive)	21.9 µM (inactive)
